US20100298141A1, “SUBSTITUTED PYRIDINE N-OXIDE HERBICIDES” (E. I. DU PONT DE NEMOURS AND COMPANY, priority 2007, published 2010)

Tests used:
morningglory = assay: Test A pre-/postemergence greenhouse test; assay type: in vivo, Ipomoea spp.; settings: for Plant response rating, Morningglory: 0 to 100 scale where 0 is no effect and 100 is complete control; for Morningglory plant response rating: 0 to 100 scale
Procedure, shortened: (§1)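 Each test compound, dissolved in a non-phytotoxic solvent mixture with surfactant, was sprayed directly onto seeded soil (loam/sand blend) and, at the same moment, onto seedlings carrying one to two leaves. Around ten greenhouse days later, plants were rated visually for injury relative to untreated controls.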

redroot pigweed = assay: Test A pre-/postemergence greenhouse test; assay type: in vivo, Amaranthus retroflexus; settings: for Plant response rating, Pigweed: 0 to 100 scale where 0 is no effect and 100 is complete control; for Pigweed plant response rating: 0 to 100 scale
Procedure, shortened: as §1

blackgrass = assay: Test C pre-/postemergence test; assay type: in vivo, Alopecurus myosuroides
Procedure, shortened: (§2)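 Test chemicals were formulated with surfactant in a non-phytotoxic solvent and sprayed both on freshly planted seeds (preemergence) and on 1- to 4-leaf plants of 2–18 cm (postemergence). Flooded-paddy pots received compound directly into 3 cm of standing water, maintained for the test.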

downy brome = assay: Test C pre-/postemergence test; assay type: in vivo, Bromus tectorum
Procedure, shortened: as §2

green foxtail = assay: Test C pre-/postemergence test; assay type: in vivo, Setaria viridis
Procedure, shortened: as §2

wild oat = assay: Test C pre-/postemergence test; assay type: in vivo, Avena fatua
Procedure, shortened: as §2

catchweed bedstraw = assay: Test C pre-/postemergence test; assay type: in vivo, Galium aparine
Procedure, shortened: as §2

bermudagrass = assay: Test C pre-/postemergence test; assay type: in vivo, Cynodon dactylon
Procedure, shortened: as §2

cocklebur = assay: Test C pre-/postemergence test; assay type: in vivo, Xanthium strumarium
Procedure, shortened: as §2

woolly cupgrass = assay: Test C pre-/postemergence test; assay type: in vivo, Eriochloa villosa
Procedure, shortened: as §2

kochia = assay: Test C pre-/postemergence test; assay type: in vivo, Kochia scoparia
Procedure, shortened: as §2

lambsquarters = assay: Test C pre-/postemergence test; assay type: in vivo, Chenopodium album
Procedure, shortened: as §2

yellow nutsedge = assay: Test C pre-/postemergence test; assay type: in vivo, Cyperus esculentus
Procedure, shortened: as §2

soybean = assay: Test C pre-/postemergence test; assay type: in vivo, Glycine max
Procedure, shortened: as §2

rice = assay: Test C flooded paddy test; assay type: in vivo, Oryza sativa; settings: Flood
Procedure, shortened: (§3)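 Compound was added to standing water 3 cm above soil, flood maintained, and plants held in a greenhouse before visual scoring against controls at 13 to 15 days.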

duck salad = assay: Test C flooded paddy test; assay type: in vivo, Heteranthera limosa; settings: Flood
Procedure, shortened: as §3

[1] = Postemergence, 500 g ai/ha, 0 is no effect, 100 is complete control
[2] = Preemergence, 125 g ai/ha, 0 no effect, 100 complete control
[3] = 62 g ai/ha, Preemergence, scale 0 to 100
[4] = 125 g ai/ha, preemergence, scale 0 (no effect) to 100 (complete control)
[5] = Preemergence, 31 g ai/ha, scale 0 to 100 (0 no effect, 100 complete control)
[6] = preemergence, 250 g ai/ha, scale 0 (no effect) to 100 (complete control)
[7] = 62 g ai/ha, scale 0 to 100 (0 no effect, 100 complete control)
[8] = 250 g ai/ha, scale 0 to 100, 0 no effect, 100 complete control, 13 to 15 days

SMILES: Cc1cc[n+]([O-])c(S(=O)(=O)Cc2c(C(F)(F)F)nn(C)c2OCC(F)F)c1 [Compound 94]
- Plant response rating, Morningglory (morningglory; Postemergence, 125 g ai/ha): 50
- Morningglory plant response rating (morningglory; [1]): 60
- Morningglory plant response rating (morningglory; [2]): 50
- Plant response rating, Morningglory (morningglory; Preemergence, 500 g ai/ha): 100
- Plant response rating, Pigweed (redroot pigweed; Postemergence, 125 g ai/ha): 60
- Pigweed plant response rating (redroot pigweed; [1]): 80
- Pigweed plant response rating (redroot pigweed; [2]): 100
- Plant response rating, Pigweed (redroot pigweed; Preemergence, 500 g ai/ha): 100
- Blackgrass plant response rating (blackgrass; [3]): 95
- Blackgrass plant response rating (blackgrass; [4]): 100
- Plant response rating, Blackgrass (blackgrass; [5]): 70
- Blackgrass plant response rating (blackgrass; [6]): 100
- Bromegrass, Downy plant response rating (downy brome; [3]): 75
- Bromegrass, Downy plant response rating (downy brome; [4]): 80
- Plant response rating, Bromegrass, Downy (downy brome; [5]): 10
- Bromegrass, Downy plant response rating (downy brome; [6]): 95
- Foxtail, Green plant response rating (green foxtail; [3]): 100
- Foxtail, Green plant response rating (green foxtail; [4]): 100
- Plant response rating, Foxtail, Green (green foxtail; [5]): 98
- Foxtail, Green plant response rating (green foxtail; [6]): 100
- Oat, Wild plant response rating (wild oat; [3]): 65
- Oat, Wild plant response rating (wild oat; [4]): 65
- Plant response rating, Oat, Wild (wild oat; [5]): 35
- Oat, Wild plant response rating (wild oat; [6]): 98
- Galium plant response rating (catchweed bedstraw; [3]): 100
- Galium plant response rating (catchweed bedstraw; [4]): 100
- Plant response rating, Galium (catchweed bedstraw; [5]): 95
- Galium plant response rating (catchweed bedstraw; [6]): 100
- Bermudagrass plant response rating (bermudagrass; 62 g ai/ha, Preemergence, scale 0 to 100 (0 no effect, 100 complete control)): 100
- Bermudagrass plant response rating (bermudagrass; [4]): 100
- Plant response rating, Bermudagrass (bermudagrass; [5]): 90
- Bermudagrass plant response rating (bermudagrass; [6]): 100
- Cocklebur plant response rating (cocklebur; [3]): 0
- Cocklebur plant response rating (cocklebur; [4]): 0
- Plant response rating, Cocklebur (cocklebur; [5]): 0
- Cocklebur plant response rating (cocklebur; [6]): 0
- Cupgrass, Woolly plant response rating (woolly cupgrass; [3]): 90
- Cupgrass, Woolly plant response rating (woolly cupgrass; [4]): 100
- Plant response rating, Cupgrass, Woolly (woolly cupgrass; [5]): 10
- Cupgrass, Woolly plant response rating (woolly cupgrass; [6]): 100
- Kochia plant response rating (kochia; [3]): 100
- Kochia plant response rating (kochia; [4]): 100
- Plant response rating, Kochia (kochia; [5]): 85
- Kochia plant response rating (kochia; [6]): 100
- Lambsquarters plant response rating (lambsquarters; [3]): 90
- Lambsquarters plant response rating (lambsquarters; [4]): 100
- Plant response rating, Lambsquarters (lambsquarters; [5]): 90
- Lambsquarters plant response rating (lambsquarters; [6]): 100
- Nutsedge, Yellow plant response rating (yellow nutsedge; [3]): 55
- Nutsedge, Yellow plant response rating (yellow nutsedge; [4]): 60
- Plant response rating, Nutsedge, Yellow (yellow nutsedge; [5]): 0
- Nutsedge, Yellow plant response rating (yellow nutsedge; [6]): 98
- Soybean plant response rating (soybean; [3]): 30
- Soybean plant response rating (soybean; [4]): 30
- Plant response rating, Soybean (soybean; [5]): 0
- Soybean plant response rating (soybean; [6]): 80
- Plant response rating, Rice (rice; [7]): 0
- Plant response rating, Rice (rice; [8]): 20
- Plant response rating, Ducksalad (duck salad; [7]): 0
- Plant response rating, Ducksalad (duck salad; [8]): 75
